Starred links: 1 amine or outer side, 2 acyl side, 3 side chain; linkers in the order of their positions; H or OH if unused. Positions of bridges follow the written chain, without caps; N, C: chain ends. Non-standard residues stand in square brackets, D forms with d. Residues, ends and D or L forms follow the SMILES beside them. ξ: configuration not given here. *: point of attachment. ξAbu(3ξ-NHCOCH2NH2) = CC(NC(=O)CN)C(N)C(=O)O; ξAbu(βξ-NH2) = CC(N[*:3])C(N[*:1])C(=O)[*:2]; ξAbu(3ξ-NH-βAla) = CC(NC(=O)CCN)C(N)C(=O)O; X8 = O=C(/C=C/c1ccc(N[*:1])cc1)[*:2]; ξAsp(βξ-Me) = CC(C(=O)O)C(N)C(=O)O; Tridecanoyl = CCCCCCCCCCCCC(=O)*; X1 = O=C(Cc1ccc(N[*:1])cc1)[*:2]; ξAbu(3ξ-NH2) = CC(N)C(N)C(=O)O; Lauroyl = CCCCCCCCCCCC(=O)*; 3Abz = Nc1cccc(C(=O)O)c1; Pip = O=C(O)[CH]1CCCCN1; ξD = NC(CC(=O)O)C(=O)O; ξPip = O=C(O)C1CCCCN1; ξV = CC(C)C(N)C(=O)O; ξP = O=C(O)C1CCCN1

In one assay the test system is Staphylococcus aureus (MSSA). Conditions: 24 h. In a few lines: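 Broth microdilution MIC per NCCLS M7-A6 with doubling serial dilutions, in cation-adjusted Mueller-Hinton broth supplemented with 0.625 mM calcium.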
With `CCCCCCCCCCCC(=O)Nc1ccc(/C=C/C(=O)NC(CC(=O)O)C(=O)NC2C(=O)N3CCCCC3C(=O)NC(C(C)C(=O)O)C(=O)NC(CC(=O)O)C(=O)NCC(=O)NC(CC(=O)O)C(=O)NCC(=O)NC(C(C)NC(=O)CN)C(=O)NC(C(C)C)C(=O)N3CCCC3C(=O)NC2C)cc1` (stereo not drawn) [Compound 89, C12-(p-Trans-Cinnamyl)-Amphomycin-9-Gly] (Lauroyl-[X8]D[ξAbu(βξ-NH2)][Pip][ξAsp(βξ-Me)]DGDG[ξAbu(3ξ-NHCOCH2NH2)]VP; lactam 3-C; configuration not given here), the MIC lay in the range of 0.5 to 1 µg/mL.

With `CCCCCCCCCCCCCCC(=O)NC(CC(=O)O)C(=O)NC1C(=O)N2CCCCC2C(=O)NC(C(C)C(=O)O)C(=O)NC(CC(=O)O)C(=O)NCC(=O)NC(CC(=O)O)C(=O)NCC(=O)NC(C(C)NC(=O)[C@H](CCCCN)NC(=O)[C@@H](N)CCCCN)C(=O)NC(C(C)C)C(=O)N2CCCC2C(=O)NC1C` (some centres unmarked) [Compound 194, C15-Amphomycin-9-Lys-Lys], the MIC amounted to 2 µg/mL. On the same count and under the same terms, for `CCCCCCCCCCCCC(=O)Nc1cccc(C(=O)NC(CC(=O)O)C(=O)NC2C(=O)N3CCCCC3C(=O)NC(C(C)C(=O)O)C(=O)NC(CC(=O)O)C(=O)NCC(=O)NC(CC(=O)O)C(=O)NCC(=O)NC(C(C)N)C(=O)NC(C(C)C)C(=O)N3CCCC3C(=O)NC2C)c1` (stereo not drawn) [Compound 297, C13-(M-Aminobenzoyl)-Amphomycin] ({Tridecanoyl-3Abz}-D[ξAbu(βξ-NH2)][Pip][ξAsp(βξ-Me)]DGDG[ξAbu(3ξ-NH2)]VP; lactam 2-C; configuration not given here) the value was 0.25 µg/mL; for `CCCCCCCCCCCCCCC(=O)NC(CC(=O)O)C(=O)NC1C(=O)N2CCCCC2C(=O)NC(C(C)C(=O)O)C(=O)NC(CC(=O)O)C(=O)NCC(=O)NC(CC(=O)O)C(=O)NCC(=O)NC(C(C)NC(=O)CCCCCNC(=O)CN)C(=O)NC(C(C)C)C(=O)N2CCCC2C(=O)NC1C` (centres unmarked) [Compound 93, C15-Amphomycin-9-Ahx-Gly], 4 µg/mL; for `CCCCCCCCCCCCCCC(=O)NC(CC(=O)O)C(=O)NC1C(=O)N2CCCCC2C(=O)NC(C(C)C(=O)O)C(=O)NC(CC(=O)O)C(=O)NCC(=O)NC(CC(=O)O)C(=O)NCC(=O)NC(C(C)NC(=O)[C@@H](N)CCCCN)C(=O)NC(C(C)C)C(=O)N2CCCC2C(=O)NC1C` (single isomer, unassigned) [Compound 172, C15-Amphomycin-9-Lys], 16 µg/mL. The same measure, in the same setting: for `CCCCCCCCCCCCCCC(=O)NC(CC(=O)O)C(=O)NC1C(=O)N2CCCCC2C(=O)NC(C(C)C(=O)O)C(=O)NC(CC(=O)O)C(=O)NCC(=O)NC(CC(=O)O)C(=O)NCC(=O)NC(C(C)NC(=O)[C@@H](N)CC(C)C)C(=O)NC(C(C)C)C(=O)N2CCCC2C(=O)NC1C` (some centres unmarked) [Compound 5, C15-Amphomycin-9-Leu] the value was 16 to 32 µg/mL; for `CC(C)C1NC(=O)C(C(C)NC(=O)CCN)NC(=O)CNC(=O)C(CC(=O)O)NC(=O)CNC(=O)C(CC(=O)O)NC(=O)C(C(C)C(=O)O)NC(=O)C2CCCCN2C(=O)C(NC(=O)C(N)CC(=O)O)C(C)NC(=O)C2CCCN2C1=O` (stereo not drawn) [Compound 355, Amphomycin-9-(β-Ala)] (H-D[ξAbu(βξ-NH2)][Pip][ξAsp(βξ-Me)]DGDG[ξAbu(3ξ-NH-βAla)]VP; lactam 2-C; configuration not given here), >64 µg/mL; for `CCCCCCCCCCC(=O)Nc1ccc(C(=O)NC(CC(=O)O)C(=O)NC2C(=O)N3CCCCC3C(=O)NC(C(C)C(=O)O)C(=O)NC(CC(=O)O)C(=O)NCC(=O)NC(CC(=O)O)C(=O)NCC(=O)NC(C(C)N)C(=O)NC(C(C)C)C(=O)N3CCCC3C(=O)NC2C)cc1` (centres unmarked) [Compound 284, C11-PABA-Amphomycin], 16 µg/mL. The same measure, in the same setting: with `CCCCCCCCCCCCC(=O)Nc1ccc(CC(=O)NC(CC(=O)O)C(=O)NC2C(=O)N3CCCCC3C(=O)NC(C(C)C(=O)O)C(=O)NC(CC(=O)O)C(=O)NCC(=O)NC(CC(=O)O)C(=O)NCC(=O)NC(C(C)N)C(=O)NC(C(C)C)C(=O)N3CCCC3C(=O)NC2C)cc1` (stereo not drawn) [Compound 300, C13-(p-Apa)-Amphomycin] (Tridecanoyl-[X1]D[ξAbu(βξ-NH2)][Pip][ξAsp(βξ-Me)]DGDG[ξAbu(3ξ-NH2)]VP; lactam 3-C; configuration not given here) the figure was 0.225 µg/mL; with `CCCCCCCCCCCCCCC(=O)NC(CC(=O)O)C(=O)NC1C(=O)N2CCCCC2C(=O)NC(C(C)C(=O)O)C(=O)NC(CC(=O)O)C(=O)NCC(=O)NC(CC(=O)O)C(=O)NCC(=O)NC(C(C)NC(=O)CNC(=O)[C@H](CCCCN)NC(=O)CN)C(=O)NC(C(C)C)C(=O)N2CCCC2C(=O)NC1C` (stereo partly drawn) [Compound 190, C15-Amphomycin-9-Gly-Lys-Gly], 1 µg/mL; with `CCCCCCCCCCCCCCNC(=O)NCCC(=O)NC(CC(=O)O)C(=O)NC1C(=O)N2CCCCC2C(=O)NC(C(C)C(=O)O)C(=O)NC(CC(=O)O)C(=O)NCC(=O)NC(CC(=O)O)C(=O)NCC(=O)NC(C(C)N)C(=O)NC(C(C)C)C(=O)N2CCCC2C(=O)NC1C` (stereo not drawn) [Compound 295, CH3—(CH2)13—NH—C(═O)-(β-Ala)-Amphomycin], 0.5 µg/mL. As for `CCCCCCCCCCCCC(=O)N[C@@H](CC(=O)OC)C(=O)NC(CC(=O)O)C(=O)NC1C(=O)N2CCCCC2C(=O)NC(C(C)C(=O)O)C(=O)NC(CC(=O)O)C(=O)NCC(=O)NC(CC(=O)O)C(=O)NCC(=O)NC(C(C)N)C(=O)NC(C(C)C)C(=O)N2CCCC2C(=O)NC1C` (stereo partly drawn) [Compound 311, C13-(Asp-(OMe))-Amphomycin] (Tridecanoyl-D(OMe)[ξD][ξAbu(βξ-NH2)][ξPip][ξAsp(βξ-Me)][ξD]G[ξD]G[ξAbu(3ξ-NH2)][ξV][ξP]; lactam 3-C), the MIC is 8 µg/mL. On the same count and under the same terms, for `CCCCCCCC(=O)N(C)CC(=O)NC(CC(=O)O)C(=O)NC1C(=O)N2CCCCC2C(=O)NC(C(C)C(=O)O)C(=O)NC(CC(=O)O)C(=O)NCC(=O)NC(CC(=O)O)C(=O)NCC(=O)NC(C(C)N)C(=O)NC(C(C)C)C(=O)N2CCCC2C(=O)NC1C` (centres unmarked) [Compound 346, C8-Sar-Amphomycin] the value was >64 µg/mL.

Consider `CCCCCCCCCCCCCCC(=O)N[C@H](C(=O)NC(CC(=O)O)C(=O)NC1C(=O)N2CCCCC2C(=O)NC(C(C)C(=O)O)C(=O)NC(CC(=O)O)C(=O)NCC(=O)NC(CC(=O)O)C(=O)NCC(=O)NC(C(C)N)C(=O)NC(C(C)C)C(=O)N2CCCC2C(=O)NC1C)c1ccccc1` (some centres unmarked) [Compound 115, C15-Phg-Amphomycin], for which the MIC was determined as 2 µg/mL. On the same count and under the same terms, with `CCCCCCCCCCCCCCNC(=O)NCCCC(=O)NC(CC(=O)O)C(=O)NC1C(=O)N2CCCCC2C(=O)NC(C(C)C(=O)O)C(=O)NC(CC(=O)O)C(=O)NCC(=O)NC(CC(=O)O)C(=O)NCC(=O)NC(C(C)N)C(=O)NC(C(C)C)C(=O)N2CCCC2C(=O)NC1C` (centres unmarked) [Compound 291, CH3—(CH2)13—NH—C(═O)-(GABA)-Amphomycin] the figure was 2 µg/mL.

Still in this assay, the particulars now being: S. aureus (MSSA), CAMHB supplemented with 0.625 mM calcium, 24 hours at about 37° C.; a range = compound tested multiple times.
For `CCCCCCCCCCCC(=O)NC(CC(=O)O)C(=O)NC1C(=O)N2CCCCC2C(=O)NC(C(C)C(=O)O)C(=O)NC(CC(=O)O)C(=O)NCC(=O)NC(CC(=O)O)C(=O)NCC(=O)NC(C(C)NC(=O)CCCN)C(=O)NC(C(C)C)C(=O)N2CCCC2C(=O)NC1C` (centres unmarked) [Compound 57, C12-Amphomycin-9-GABA], the MIC was 57/16 μg/mL. As to `CCCCCCCCCC(=O)NC(CC(=O)O)C(=O)NC1C(=O)N2CCCCC2C(=O)NC(C(C)C(=O)O)C(=O)NC(CC(=O)O)C(=O)NCC(=O)NC(CC(=O)O)C(=O)NCC(=O)NC(C(C)NC(=O)CCN)C(=O)NC(C(C)C)C(=O)N2CCCC2C(=O)NC1C` (stereo not drawn) [Compound 76, C10-Amphomycin-9-(β-Ala)], the MIC is recorded as 76/16 μg/mL.

The values above are taken from US7868135B2, “Compositions of lipopeptide antibiotic derivatives and methods of use thereof” (priority 2003, dated 2011).
